test system: Mus musculus; test: Compound was tested for its significant suppressive activity of delayed type hypersensitivity (DTH) with out inhibition of humoral immunity in mice by oral administration at dose of 100 mg/kg; format: functional

Row | SMILES | Increase in ear thickness | inhibition in vivo at 100 mg/kg [%]
1 | CN(C)c1cccc(-c2cn3c(n2)sc2ccccc23)c1 | 3.2 1/100mm | 21

test system: Mus musculus; test: Significant suppressive activity of delayed type hypersensitivity (DTH) with out inhibition of humoral immunity in mice by oral administration at dose of 400 mg/kg; format: functional

Row | SMILES | Increase in ear thickness | inhibition in vivo at 400 mg/kg [%]
2 | Fc1ccc(-c2cn3c(n2)sc2ccccc23)cc1 | 5.9 1/100mm | -13.5
3 | O=[N+]([O-])c1cccc(-c2cn3c(n2)sc2ccccc23)c1 | 2.1 1/100mm | 60.4
4 | COC(=O)c1cccc(-c2cn3c(n2)sc2cc(O)ccc23)c1 | 5.1 1/100mm | -24.4
5 | O=C(O)c1ccc(-c2cn3c(n2)sc2ccccc23)cc1 | 2.9 1/100mm | 49.1
6 | O=C(O)c1cccc(-c2cn3c(n2)sc2ccccc23)c1 | 3.2 1/100mm | 25.6
7 | COc1ccccc1-c1cn2c(n1)sc1ccccc12 | 4.7 1/100mm | 17.5
8 | Clc1cccc(-c2cn3c(n2)sc2ccccc23)c1 | 5.8 1/100mm | -11.5
9 | Cc1ccc(-c2cn3c(n2)sc2ccccc23)cc1S(C)(=O)=O | 4.9 1/100mm | 3.9
10 | Oc1cc(O)cc(-c2cn3c(n2)sc2ccccc23)c1 | 3.6 1/100mm | 21.7
11 | Clc1ccccc1-c1cn2c(n1)sc1ccccc12 | 6.3 1/100mm | -21.2
12 | Cc1c(-c2cccc(O)c2)nc2sc3ccccc3n12 | 3.6 1/100mm | 16.3
13 | COC(=O)c1cccc(-c2cn3c(n2)sc2ccccc23)c1 | 1.9 1/100mm | 64.2
14 | Oc1cccc(-c2cn3c(n2)oc2ccccc23)c1 | 2.9 1/100mm | 9.4
15 | Oc1cc(-c2cn3c(n2)sc2ccccc23)ccc1Cl | 3.7 1/100mm | 14
16 | Cc1ccc2c(c1)sc1nc(-c3cccc(O)c3)cn12 | 3.8 1/100mm | 5
17 | COc1cccc(-c2cn3c(n2)sc2ccccc23)c1 | 2.1 1/100mm | 34.4
18 | N#Cc1cccc(-c2cn3c(n2)sc2ccccc23)c1 | 4.7 1/100mm | -46.9
19 | c1ccc(-c2cn3c(n2)sc2ccccc23)cc1 | 5.7 1/100mm | 1.7

Row | SMILES | Increase in ear thickness | inhibition in vivo at 400 mg/kg [%]
20 | COc1ccc2c(c1)sc1nc(-c3cccc(O)c3)cn12 | 4.9 1/100mm | -22.5
21 | Ic1ccc(-c2cn3c(n2)sc2ccccc23)cc1 | 5.3 1/100mm | -1.9
22 | Oc1ccc(-c2cn3c(n2)sc2ccccc23)cc1 | 3.6 1/100mm | 40.9
23 | COC(=O)c1cc(-c2cn3c(n2)sc2ccccc23)ccc1O | 2.3 1/100mm | 42.5
24 | Nc1cccc(-c2cn3c(n2)sc2ccccc23)c1 | 4.3 1/100mm | 18.9
25 | COc1ccc(-c2cn3c(n2)sc2ccccc23)cc1 | 4.6 1/100mm | 11.5
26 | CS(=O)(=O)Nc1cccc(-c2cn3c(n2)sc2ccccc23)c1 | 3.6 1/100mm | 32.1
27 | Oc1cccc(-c2cn3c(n2)sc2cc(O)ccc23)c1 | 2.4 1/100mm | 41.5
28 | CC(=O)Nc1cccc(-c2cn3c(n2)sc2ccccc23)c1 | 3.9 1/100mm | 26
29 | O=[N+]([O-])c1ccc(-c2cn3c(n2)sc2ccccc23)cc1 | 5 1/100mm | 27.5
30 | Oc1ccccc1-c1cn2c(n1)sc1ccccc12 | 1.4 1/100mm | 65
31 | COC(=O)c1ccc(-c2cn3c(n2)sc2ccccc23)cc1 | 4.9 1/100mm | 14
32 | Clc1ccc(-c2cn3c(n2)sc2ccccc23)cc1 | 5.9 1/100mm | 14.5
33 | Oc1cccc(-c2cn3c(nc4ccccc43)s2)c1 | 3.8 1/100mm | 7.3
34 | Cc1ccc(-c2cn3c(n2)sc2ccccc23)cc1O | 3.2 1/100mm | 39.6
35 | Brc1ccc(-c2cn3c(n2)sc2ccccc23)cc1 | 4.9 1/100mm | 5.8
36 | O=[N+]([O-])c1cc(-c2cn3c(n2)sc2ccccc23)ccc1O | 4.2 1/100mm | 20.8
37 | COc1ccc(-c2cn3c(n2)sc2ccccc23)cc1O | 4.6 1/100mm | 13.2

test system: Mus musculus; test: Compound was tested for its significant suppressive activity of delayed type hypersensitivity (DTH) with out inhibition of humoral immunity in mice by oral administration at dose of 25 mg/kg; format: functional

Row | SMILES | inhibition in vivo at 25 mg/kg [%] | Increase in ear thickness
38 | CC(=O)Nc1ccc(-c2cn3c(n2)sc2ccccc23)cc1 | -9.1 | –
39 | Cc1ccc(-c2cn3c(n2)sc2ccccc23)cc1[S+](C)[O-] (stereo not given) | 4.9 | 3.9 1/100mm
40 | O=CNc1cccc(-c2cn3c(n2)sc2ccccc23)c1 | 39.5 | 2.6 1/100mm
41 | Oc1ccc(-c2cn3c(n2)sc2ccccc23)cc1O | 21.9 | 2.5 1/100mm

test system: Mus musculus; test: The compound was tested for its significant suppressive activity of delayed type hypersensitivity (DTH) with out inhibition of humoral immunity in mice by oral administration at dose of 400 mg/kg; format: functional

Row | SMILES | Increase in ear thickness | inhibition in vivo at 400 mg/kg [%]
42 | Cc1ccc(-c2cn3c(n2)sc2ccccc23)cc1 | 5.3 1/100mm | -1.9

test system: Mus musculus; test: Significant suppressive activity of delayed type hypersensitivity (DTH) with out inhibition of humoral immunity in mice by oral administration at dose of 50 mg/kg; format: functional

Row | SMILES | Increase in ear thickness | inhibition in vivo at 50 mg/kg [%]
43 | Fc1ccc(-c2cn3c(n2)sc2ccccc23)cc1 | 5 1/100mm | -3.8
44 | O=[N+]([O-])c1cccc(-c2cn3c(n2)sc2ccccc23)c1 | 3.2 1/100mm | 39.6
45 | Cc1ccc(-c2cn3c(n2)sc2ccccc23)cc1 | 5.8 1/100mm | -11.5
46 | COC(=O)c1cccc(-c2cn3c(n2)sc2cc(O)ccc23)c1 | 3.8 1/100mm | 7.3
47 | O=C(O)c1ccc(-c2cn3c(n2)sc2ccccc23)cc1 | 3.8 1/100mm | 33.3
48 | O=C(O)c1cccc(-c2cn3c(n2)sc2ccccc23)c1 | 2.8 1/100mm | 34.9
49 | COc1ccccc1-c1cn2c(n1)sc1ccccc12 | 5.5 1/100mm | 3.5
50 | Clc1cccc(-c2cn3c(n2)sc2ccccc23)c1 | 5 1/100mm | 3.8
51 | Cc1ccc(-c2cn3c(n2)sc2ccccc23)cc1S(C)(=O)=O | 1.9 1/100mm | 53.7
52 | Oc1cc(O)cc(-c2cn3c(n2)sc2ccccc23)c1 | 5.8 1/100mm | -26.1
53 | Clc1ccccc1-c1cn2c(n1)sc1ccccc12 | 5 1/100mm | 3.8
54 | Cc1c(-c2cccc(O)c2)nc2sc3ccccc3n12 | 3.9 1/100mm | 9.3
55 | COC(=O)c1cccc(-c2cn3c(n2)sc2ccccc23)c1 | 1.9 1/100mm | 64.2
56 | CC(=O)Nc1ccc(-c2cn3c(n2)sc2ccccc23)cc1 | 3.6 1/100mm | –
57 | Oc1cccc(-c2cn3c(n2)oc2ccccc23)c1 | 2.6 1/100mm | 18.8
58 | Oc1cc(-c2cn3c(n2)sc2ccccc23)ccc1Cl | 2.4 1/100mm | 44.2
59 | Cc1ccc2c(c1)sc1nc(-c3cccc(O)c3)cn12 | 4.5 1/100mm | -12.5
60 | COc1ccc2nc(NC(=O)Nc3ccccc3)sc2c1 [FRENTIZOLE] | 3.5 1/100mm | 42.6
61 | COc1cccc(-c2cn3c(n2)sc2ccccc23)c1 | 2.8 1/100mm | 12.5
62 | N#Cc1cccc(-c2cn3c(n2)sc2ccccc23)c1 | 3 1/100mm | 6.3

Row | SMILES | Increase in ear thickness | inhibition in vivo at 50 mg/kg [%]
63 | c1ccc(-c2cn3c(n2)sc2ccccc23)cc1 | 6 1/100mm | -3.4
64 | COc1ccc2c(c1)sc1nc(-c3cccc(O)c3)cn12 | 4.8 1/100mm | -20
65 | Ic1ccc(-c2cn3c(n2)sc2ccccc23)cc1 | 6.4 1/100mm | -23.1
66 | Oc1ccc(-c2cn3c(n2)sc2ccccc23)cc1 | 3.4 1/100mm | 44.2
67 | COC(=O)c1cc(-c2cn3c(n2)sc2ccccc23)ccc1O | 4.2 1/100mm | -5
68 | Nc1cccc(-c2cn3c(n2)sc2ccccc23)c1 | 4.1 1/100mm | 22.6
69 | COc1ccc(-c2cn3c(n2)sc2ccccc23)cc1 | 5.3 1/100mm | -1.9
70 | CS(=O)(=O)Nc1cccc(-c2cn3c(n2)sc2ccccc23)c1 | 3.8 1/100mm | 28.3
71 | Oc1cccc(-c2cn3c(n2)sc2cc(O)ccc23)c1 | 2.3 1/100mm | 43.9
72 | CC(=O)Nc1cccc(-c2cn3c(n2)sc2ccccc23)c1 | 3.5 1/100mm | 34
73 | O=[N+]([O-])c1ccc(-c2cn3c(n2)sc2ccccc23)cc1 | 5.4 1/100mm | 21.7
74 | Oc1ccccc1-c1cn2c(n1)sc1ccccc12 | 3.5 1/100mm | 12.5
75 | COC(=O)c1ccc(-c2cn3c(n2)sc2ccccc23)cc1 | 6 1/100mm | -5.3
76 | Clc1ccc(-c2cn3c(n2)sc2ccccc23)cc1 | 4.8 1/100mm | 30.4
77 | Oc1cccc(-c2cn3c(nc4ccccc43)s2)c1 | 2.3 1/100mm | 43.9
78 | Cc1ccc(-c2cn3c(n2)sc2ccccc23)cc1O | 3.3 1/100mm | 37.7
79 | Brc1ccc(-c2cn3c(n2)sc2ccccc23)cc1 | 5.5 1/100mm | -5.8
80 | O=[N+]([O-])c1cc(-c2cn3c(n2)sc2ccccc23)ccc1O | 4.1 1/100mm | 22.6
81 | COc1ccc(-c2cn3c(n2)sc2ccccc23)cc1O | 4.9 1/100mm | 7.5

test system: Mus musculus; test: Compound was tested for its significant suppressive activity of delayed type hypersensitivity (DTH) with out inhibition of humoral immunity in mice by oral administration at dose of 200 mg/kg; format: functional

Row | SMILES | Increase in ear thickness | inhibition in vivo at 200 mg/kg [%]
82 | CC(=O)Nc1ccc(-c2cn3c(n2)sc2ccccc23)cc1 | 3 1/100mm | 9.1
83 | Cc1ccc(-c2cn3c(n2)sc2ccccc23)cc1[S+](C)[O-] (stereo not given) | 1.9 1/100mm | 53.7
84 | O=CNc1cccc(-c2cn3c(n2)sc2ccccc23)c1 | 2.2 1/100mm | 48.8
85 | Oc1ccc(-c2cn3c(n2)sc2ccccc23)cc1O | 3.1 1/100mm | 3.1

test system: Mus musculus; test: Compound was tested for its significant suppressive activity of delayed type hypersensitivity (DTH) with out inhibition of humoral immunity in mice by oral administration at dose of 12.5 mg/kg; format: functional

Row | SMILES | Increase in ear thickness | inhibition in vivo at 12.5 mg/kg [%]
86 | CN(C)c1cccc(-c2cn3c(n2)sc2ccccc23)c1 | 3.4 1/100mm | 17

Reference: ChEMBL document CHEMBL1123416, “Imidazo[2,1-b]benzothiazoles. 2. New immunosuppressive agents” (1986)
